Data on 13 compounds can be found in PubChem BioAssay (NCI).

Holding throughout (assay): DTP human tumour cell line panel, 48 h
Assay [1] concerns TK-10 renal.
For assay [2], the system named is SF-268 CNS.
Assay [3] concerns CAKI-1 renal.
Assay [4] has as its system UO-31 renal.
Assay [5] concerns OVCAR-3 ovarian.
Assay [6] deals with LOX IMVI melanoma.
For assay [7], the system named is SR leukemia.
Assay [8] relates to CCRF-CEM leukemia.
For assay [9], the system named is SK-OV-3 ovarian.
For assay [10], the system named is 786-0 renal.
Assay [11] deals with PC-3 prostate.
The subject of assay [12] is MCF7 breast.
Assay [13] relates to T-47D breast.

As a reminder, the TGI is the concentration giving total growth inhibition. Higher therefore signals less potent growth arrest.

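In this assay, cells in 96-well plates receive the compound at five concentrations for 48 hours. Endpoints are linearly interpolated between the surrounding concentrations. Definition used: TGI = concentration required for complete inhibition of growth.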

For the compound `Nc1c([N+](=O)[O-])nc(Cl)c2nncn12`, the TGI in [1] was over 100 µM; in [2], over 100 µM; in assay [3] it was over 100 µM; in [4], over 100 µM; in assay [5], over 100 µM; in [6], over 61.1 µM. The TGI in [7] is 41.9 µM; in assay [8], over 68.2 µM; in assay [9], over 100 µM; in [10], over 100 µM.
Regarding `NNC(=O)c1c(-c2cccnc2)cnc2ccccc12`, the TGI in assay [1], in [11], in assay [2], in assay [3], in [4] and in [5] was over 100 µM throughout. Also, the TGI in assay [12], in assay [7], in [8], in assay [9] and in assay [10] was over 100 µM in each case.
Regarding `C/C(=C\CBr)CCC(Br)C(C)(C)Cl` (stereo not given), the TGI in assay [1], in assay [2], in [3], in assay [4], in [6] and in [7] was over 100 µM each time. Also, the TGI in [9] and in assay [10] was over 100 µM in each case.
As for `O=C(NC1CCN(Cc2ccccc2)CC1)c1ccc(I)cc1`, the TGI in [1], in assay [11], in assay [2], in [3], in [4] and in assay [5] was over 100 µM throughout. Also, the TGI in assay [6], in [7], in assay [8], in [9], in assay [10] and in [13] was over 100 µM in each case.
Turning to `COc1ccc(OC)c(CNc2ccc(C(=O)O)cc2)c1`, the TGI in assay [1], in assay [11], in [2], in [3], in assay [4] and in assay [5] was over 100 µM each time. Moreover, the TGI in assay [6], in [12], in assay [7], in assay [8], in [9] and in [10] was over 100 µM each time.
Take `COc1ccc(N2C(=O)/C(=C\c3cc(OC)c(OC)c(OC)c3)SC2c2ccccc2)cc1` (stereo not given): the TGI in assay [1], in [2], in assay [3], in assay [4], in assay [5] and in assay [6] was over 100 µM throughout. Also, the TGI in [12], in assay [7], in [8], in assay [9], in [10] and in assay [13] was over 100 µM each time.
For `CCc1c(C)c(C#N)c(=S)n(C2OC(COC(C)=O)C(OC(C)=O)C(OC(C)=O)C2OC(C)=O)c1-c1ccccc1` (stereo not given), the TGI in [1] is over 31.6 µM; in assay [2], over 31.6 µM; in assay [3], over 100 µM; in [4], over 31.6 µM; in assay [5] it was over 31.6 µM; in assay [6] it was over 31.6 µM. In addition, the TGI in assay [12] is over 31.6 µM; in [7] it was over 31.6 µM; in assay [8], over 100 µM; in assay [10], over 31.6 µM; in [13], over 31.6 µM.
Take `O=C(c1cccs1)N(C(=S)OCCOc1ccccc1)c1ccccc1`: the TGI was over 100 µM in [1]; over 100 µM in assay [11]; over 100 µM in [2]; 83.8 µM in [3]; 41.6 µM in assay [5]; 33.3 µM in [6]. Besides, the TGI in assay [12] was 44.6 µM; in assay [8] it was 59.4 µM; in assay [9], 73.5 µM; in assay [10] it was 73.7 µM; in assay [13], over 100 µM.
`CCOP1(=O)C=C(C)C(Cl)=C(C)C1` (stereo not given): the TGI is 96.7 µM in [1]; over 100 µM in [2]; over 100 µM in assay [4]; over 100 µM in assay [5]; 50.4 µM in assay [6]; over 100 µM in assay [7]. Moreover, the figures for the TGI in [8], in [9] and in assay [10] were 59.2 µM, over 100 µM and 83 µM, respectively.
On to `C/C=C/C#CC#C/C=C/C=C/C(O)CCO` (stereo not given), for which the TGI in assay [1], in [2], in assay [3], in [4], in assay [5] and in assay [6] was over 23.1 µM each time. In addition, the TGI in assay [7], in assay [8], in assay [9] and in [10] was over 23.1 µM in each case.
On to `COC(=O)c1ccc(S)c(S(=O)(=O)Nc2n[nH]c(N)n2)c1`, for which the TGI in assay [1], in [11], in [3], in assay [4], in [5] and in assay [6] was over 100 µM throughout. Also, the TGI in [7], in assay [8], in assay [10] and in assay [13] was over 100 µM throughout.
Turning to `O=c1[nH]c(=S)nc2nc3c4ccc[nH]c4c4ccccc4c3nc12`, the TGI in [1], in assay [11], in assay [2], in assay [3], in [4] and in assay [5] was over 100 µM in each case. Moreover, the TGI in [12], in assay [7], in assay [8], in [9] and in [10] was over 100 µM each time.
On to `CN(C)C(=NCc1ccccc1)NC#N`, for which the TGI in assay [1], in assay [2], in assay [3], in [4], in assay [5] and in assay [6] was over 100 µM each time. The TGI in assay [9] and in [10] was over 100 µM throughout.
